HELM strings list units from the 5' end as sugar, base in round brackets, then linkage (d deoxyribose, r ribose, m 2'-O-methyl, p phosphodiester). Strings are as the collection lists them; they lack the last nucleoside at the 3' end of the tested compound. [moe] = 2'-O-(2-methoxyethyl) (MOE); [sp] = phosphorothioate linkage; [m5C] = 5-methylcytosine

The data set deals with ATXN2. The data set is described as follows: mouse, dose not given. As to conditions: ASO.
Regarding “RNA1{[moe](G)[sp].[moe](T)p.[moe](T)p.[moe](A)p.[moe]([m5C])p.d(T)[sp].d(G)[sp].d(T)[sp].d(T)[sp].d(T)[sp].d([m5C])[sp].d(G)[sp].d(A)[sp].d([m5C])[sp].d([m5C])[sp].[moe](T)p.[moe]([m5C])p.[moe](T)[sp].[moe](G)}$$$$ (last 3' nucleoside missing)”, the 3 h FOB score was found to be 6.5 score 0-7.
“RNA1{[moe](G)[sp].[moe](T)p.[moe](T)p.[moe](A)p.d([m5C])[sp].d(T)[sp].d(G)[sp].d(T)[sp].d(T)[sp].d(T)[sp].d([m5C])[sp].d(G)[sp].d(A)[sp].d([m5C])[sp].[moe]([m5C])p.[moe](T)p.[moe]([m5C])p.[moe](T)[sp].[moe](G)}$$$$ (last 3' nucleoside missing)” showed a 3 h FOB score of 6.5 score 0-7.
In turn, “RNA1{[moe](G)[sp].[moe](T)p.[moe](T)p.[moe](G)p.[moe](T)p.d(T)[sp].d(G)[sp].d(T)[sp].d(T)[sp].d(T)[sp].d(A)[sp].d([m5C])[sp].d(A)[sp].d(T)[sp].d(T)[sp].[moe](A)p.[moe](T)p.[moe](T)[sp].[moe](A)}$$$$ (last 3' nucleoside missing)” had a 3 h FOB score of 0 score 0-7.
Substance “RNA1{[moe](G)[sp].[moe](T)p.[moe](T)p.[moe](G)p.[moe]([m5C])p.d(A)[sp].d([m5C])[sp].d(A)[sp].d(T)[sp].d(A)[sp].d(G)[sp].d(G)[sp].d(T)[sp].d(T)[sp].d(A)[sp].[moe](G)p.[moe](A)p.[moe](A)[sp].[moe](T)}$$$$ (last 3' nucleoside missing)” registered a 3 h FOB score of 6 score 0-7.
On to “RNA1{[moe](G)[sp].[moe](T)p.[moe](T)p.[moe](T)p.[moe](A)p.d(A)[sp].d(T)[sp].d(T)[sp].d(T)[sp].d(G)[sp].d(T)[sp].d(A)[sp].d(A)[sp].d([m5C])[sp].d(T)[sp].[moe](A)p.[moe](G)p.[moe](G)[sp].[moe](T)}$$$$ (last 3' nucleoside missing)”, for which the 3 h FOB score stood at 3.5 score 0-7.
The value for “RNA1{[moe](G)[sp].[moe](T)p.[moe](T)p.[moe](T)p.[moe](G)p.d(G)[sp].d(A)[sp].d(A)[sp].d(T)[sp].d([m5C])[sp].d(T)[sp].d(T)[sp].d(A)[sp].d(T)[sp].d(T)[sp].[moe](A)p.[moe](A)p.[moe](G)[sp].[moe]([m5C])}$$$$ (last 3' nucleoside missing)” was 1 score 0-7.
For “RNA1{[moe](G)[sp].[moe](T)p.[moe](T)p.[moe](T)p.[moe](T)p.d(G)[sp].d(T)[sp].d(T)[sp].d(T)[sp].d(A)[sp].d(A)[sp].d(T)[sp].d([m5C])[sp].d(A)[sp].d([m5C])[sp].[moe](A)p.[moe](G)p.[moe](T)[sp].[moe](T)}$$$$ (last 3' nucleoside missing)”, the 3 h FOB score was 2 score 0-7.
The value for “RNA1{[moe](G)[sp].[moe](T)p.[moe](T)p.[moe]([m5C])p.[moe](A)p.d(A)[sp].d(A)[sp].d(T)[sp].d(T)[sp].d([m5C])[sp].d([m5C])[sp].d(G)[sp].d(G)[sp].d([m5C])[sp].d(T)[sp].[moe]([m5C])p.[moe]([m5C])p.[moe](A)[sp].[moe](T)}$$$$ (last 3' nucleoside missing)” was 5.25 score 0-7; that for “RNA1{[moe](G)[sp].[moe](T)p.[moe](T)p.[moe]([m5C])p.[moe](A)p.d(T)[sp].d(G)[sp].d(A)[sp].d([m5C])[sp].d(T)[sp].d(T)[sp].d(T)[sp].d([m5C])[sp].d(A)[sp].d(A)[sp].[moe](G)p.[moe](G)p.[moe](G)[sp].[moe](T)}$$$$ (last 3' nucleoside missing)” was 2 score 0-7; that for “RNA1{[moe](G)[sp].[moe](T)p.[moe](T)p.[moe]([m5C])p.[moe](A)p.d(T)[sp].d(T)[sp].d([m5C])[sp].d([m5C])[sp].d(A)[sp].d(G)[sp].d(A)[sp].d(T)[sp].d(T)[sp].d(T)[sp].[moe]([m5C])p.[moe](A)p.[moe]([m5C])[sp].[moe](T)}$$$$ (last 3' nucleoside missing)” was 4 score 0-7.
For “RNA1{[moe](G)[sp].[moe](T)p.[moe](T)p.[moe]([m5C])p.[moe](A)p.d(T)[sp].d([m5C])[sp].d(T)[sp].d(T)[sp].d(T)[sp].d(T)[sp].d([m5C])[sp].d([m5C])[sp].d(T)[sp].d(T)[sp].[moe]([m5C])p.[moe](A)p.[moe](G)[sp].[moe](A)}$$$$ (last 3' nucleoside missing)”, the 3 h FOB score amounted to 0 score 0-7.
Substance “RNA1{[moe](G)[sp].[moe](T)p.[moe](T)p.[moe]([m5C])p.[moe]([m5C])p.d(T)[sp].d(T)[sp].d(A)[sp].d([m5C])[sp].d(A)[sp].d(A)[sp].d(T)[sp].d(T)[sp].d(A)[sp].d(T)[sp].[moe]([m5C])p.[moe](T)p.[moe](A)[sp].[moe](T)}$$$$ (last 3' nucleoside missing)” showed a 3 h FOB score of 3 score 0-7.
The value for “RNA1{[moe](G)[sp].[moe](T)p.[moe]([m5C])p.[moe](T)p.[moe](T)p.d(G)[sp].d(T)[sp].d(T)[sp].d([m5C])[sp].d(A)[sp].d(G)[sp].d(T)[sp].d(G)[sp].d(T)[sp].d([m5C])[sp].[moe]([m5C])p.[moe](T)p.[moe](T)[sp].[moe]([m5C])}$$$$ (last 3' nucleoside missing)” was 6 score 0-7.
The value for “RNA1{[moe](G)[sp].[moe]([m5C])[sp].[moe](T)[sp].[moe](A)[sp].[moe](A)[sp].d([m5C])[sp].d(T)[sp].d(G)[sp].d(G)[sp].d(T)[sp].d(T)[sp].d(T)[sp].d(G)[sp].d([m5C])[sp].d([m5C])[sp].[moe]([m5C])[sp].[moe](T)[sp].[moe](T)[sp].[moe](G)}$$$$ (last 3' nucleoside missing)” was 7 score 0-7.
In the case of “RNA1{[moe](G)[sp].[moe]([m5C])p.[moe](A)p.[moe](A)p.[moe](A)p.d(G)[sp].d(A)[sp].d([m5C])[sp].d(T)[sp].d(T)[sp].d(T)[sp].d(G)[sp].d(A)[sp].d(A)[sp].d(A)[sp].[moe](T)p.[moe]([m5C])p.[moe](T)[sp].[moe]([m5C])}$$$$ (last 3' nucleoside missing)”, the 3 h FOB score amounted to 0 score 0-7.
Turning to “RNA1{[moe](G)[sp].[moe]([m5C])p.[moe](A)p.[moe](A)p.[moe]([m5C])p.d(T)[sp].d(T)[sp].d(A)[sp].d(A)[sp].d(T)[sp].d(A)[sp].d(A)[sp].d([m5C])[sp].d([m5C])[sp].d(T)[sp].[moe](T)p.[moe](A)p.[moe](G)[sp].[moe](T)}$$$$ (last 3' nucleoside missing)”, the 3 h FOB score stood at 0 score 0-7.
“RNA1{[moe](G)[sp].[moe]([m5C])p.[moe](A)p.[moe](T)p.[moe](G)p.d(A)[sp].d(T)[sp].d([m5C])[sp].d(T)[sp].d(T)[sp].d(G)[sp].d(T)[sp].d(G)[sp].d(T)[sp].d(A)[sp].[moe](T)p.[moe](A)p.[moe](T)[sp].[moe](A)}$$$$ (last 3' nucleoside missing)” came in with a 3 h FOB score of 1 score 0-7.
The value for “RNA1{[moe](G)[sp].[moe]([m5C])p.[moe](A)p.[moe](T)p.[moe]([m5C])p.d(A)[sp].d(T)[sp].d(T)[sp].d(A)[sp].d([m5C])[sp].d(G)[sp].d(A)[sp].d([m5C])[sp].d([m5C])[sp].d(A)[sp].[moe](T)p.[moe](T)p.[moe]([m5C])[sp].[moe](T)}$$$$ (last 3' nucleoside missing)” was 4 score 0-7.

(Values after the OligoGym collection.)
